Results on 9 compounds are retold here after US20200253922A1, “METHODS FOR NON-[…] ADMINISTRATION OF CANNABINOIDS USING SOFT MIST […]” (Molecular Infusions, LLC, priority 2019, published 2020).

SMILES strings stand for the structures. Where two headings read alike, the source gives them in different places.

Series [1] can be described thus: Terpene solubility assessment in base formulation of 10% Saline, 20% Water, 70% Ethanol. The class given is physicochemical. The conditions noted are these: for Visual Observation: mixed overnight at room temperature. The method, then:
The base formulation was prepared in bulk and 15 g aliquots were transferred to 22 ml scintillation vials. Pure, botanically derived terpenes were purchased from commercial sources.

A further series relates to asthmatic patients. The conditions noted are these: metered dose inhaler, cited from earlier work.
Series [2] in a line: Fine particle fraction by Fast Screening Impactor, Respimat device, 28.3 L/min. The class given is physicochemical. An excerpt:
An abbreviated impactor set-up, Copley Scientific's ‘Fast Screening Impactor’ (FSI), was used to determine the FPF within liquid aerosols (Mitchell et al. AAPS PharmSciTech. 2009;10(1):252-7). The FSI consisted of the universal induction port (UIP), course fraction collector (pre-separator and insert with a 5 μm diameter cut-off @ 28.3 L/min), and fine particle fraction collector consisting of a holder and glass fiber filter. The system was assembled along with a Copley LC5 pump. The flow rate was set by attaching a flow meter to the inlet of the induction port and adjusting the flow control valve on the LC5 vacuum pump until the flow rate through the system was 28.3 L/min +/−5%. Measurements were performed under ambient laboratory conditions (˜60% RH, 72° F.). The Respimat device was primed and attached to the UIP using a mouthpiece adapter. With the vacuum pump running, the device was actuated followed by a 30 second hold before turning off the vacuum pump. The Respimat device was re-primed and another dose was collected in the FSI. To determine the amount of cannabinoids deposited in each stage, the FSI was dismantled and each stage was extracted with 10 ml of methanol. Samples were diluted and HPLC performed to quantify the mass of cannabinoids deposited in the USP throat, coarse fraction collector, and fine particle fraction collector.

Another series relates to healthy volunteers. The conditions noted are these: doses greater than 2 mg, PARI nebulizer, eight healthy volunteers, all patients; cited from earlier work.
The next series deals with subjects. Particulars: 5 mg dose via pMDI; cited from earlier work.
Another series relates to Volunteers. The series is described as follows: User feedback on tolerability of Δ9-THC distillate in ethanol delivered via […]. The class given is in vivo, human. Particulars: in 200 proof ethanol, RESPIMAT
An excerpt: Volunteers reported that 200 proof ethanol (placebo) delivered using the […]® device as non-irritating. It was observed that the cannabinoid, Δ9-THC in the ethanol solution, induced irritation that was dose dependent as shown in Table 1 below:
The irritation was caused by cannabinoid deposition at mucosal membranes in the throat and upper airways. The lung deposition profile is affected by multiple factor including FPF as well as user inhalation technique. For example, it has been shown that the timing of inhalation and actuation as well as the posture of the user's head can have an impact on lung deposition. It is also important to note that in vitro impactor studies commonly underestimate dose deposition in the throat and overestimate the dose deposited in the lungs (Wei et al. (2018), Journal of Aerosol Medicine and Pulmonary Drug Delivery 31(0): 1-14).

A short description of series [3]: Solubility of Δ9-THC and CBD in a solution of ethanol and saline at room temperature. The method, then:
FIG. 5 is a photograph of 2% w/w Δ9-THC and 2% w/w CBD in solutions of 10%, 20%, 30%, 40% and 50% (w/w) saline in ethanol. Δ9-THC and CBD were soluble in solutions of up to 30% and 40% (w/w) saline, respectively.
As shown in FIG. 5 the solubility of Δ9-THC and CBD in a solution of ethanol and saline was investigated. […] A 2% w/w solution of CBD was prepared at room temperature in solutions of 10%, 20%, 30%, 40%, or 50% (w/w) saline in ethanol. 2% w/w CBD was soluble at room temperature in ethanol solutions of up to 40% saline. In a separate experiment, the absolute solubility of Δ9-THC in ethanol solutions containing 30%w/w saline was determined to be ˜8%w/w (data not shown).

The conditions of series [4]: acidic form; cited from earlier work.
A further series has as its system patients. Particulars: aerosol formulation; cited from earlier work.

For the compound `C=CC(C)(O)CCC=C(C)C` (stereo not shown) [Linalool], the “Visual Observation” value is “Clear, colorless” in series [1] (Target Concentration 0.06% w/w); “Hazy, not fully” in series [1] (Target Concentration 0.24% w/w); “Clear, colorless” in series [1] (Target Concentration […] w/w).
On to `CCCCCc1cc(O)c2c(c1)OC(C)(C)[C@@H]1CCC(C)=C[C@@H]21` [Δ9-THC, Delta-9-tetrahydrocannabinol], for which the “tolerability of aerosol delivery to the lungs” value with asthmatic patients (0.2 mg) is “tolerable”; in the series on asthmatic patients (doses higher than 0.2 mg) it was “irritating and induced coughing”. The “% dose in FPF” value in series [2] (dose 0.35 mg) was determined as 76%; in [2] (dose 0.6 mg), 76%; in series [2] (dose 1 mg), 77%; in series [2] (dose 2 mg) it was 78%. Moreover, the “irritation reported after inhalation, compared to a placebo formulation” value in the series with healthy volunteers was “significant irritation of the throat and upper respiratory tract”. Also, in the series with subjects, the “subjects with side effects including cough and/or chest discomfort” value is reported as 3 out of 11. The User experience entry is given as “Most tolerable: Cough may occur, mild irritation of” in the series on Volunteers (dose 0.35 mg); “Harsh: Mild cough with mild throat/upper airway” in the series on Volunteers (dose 0.6 mg); “Harsh: Coughing with throat/upper airway irritation” with Volunteers (dose 1 mg); “Extremely harsh: Coughing with throat/upper airway” in the series with Volunteers (dose 2 mg). For the same compound, the “saline content of ethanol solution up to which 2% w/w is soluble” value in [3] (2% w/w, room temperature, 10-50% (w/w) saline in ethanol tested) is reported as “up to 30 % (w/w) saline”. The “observation of 2% w/w solution” value in series [3] (40% and 50% (w/w) saline solutions) is “form a separate liquid phase (oiling out)”. In [3] (ethanol solutions containing 30%w/w saline, data not shown), this compound came in with an absolute solubility of roughly 8 %w/w.
For `C=C(C)[C@@H]1CCC(C)=C[C@H]1c1c(O)cc(CCCCC)cc1O` [CBD, Cannabidiol], the “observation of 2% w/w solution” value in series [3] (50% (w/w) saline solution) was “precipitate”.
As for `CC12CCC(CC1)C(C)(C)O2` [Eucalyptol], the “Visual Observation” value in series [1] (Target Concentration 0.06% w/w) was “Clear, colorless”; in [1] (Target Concentration 0.24% w/w), “Hazy, not fully”; in series [1] (Target Concentration […] w/w), “Clear, colorless”.
With `CC1=CCC(=C(C)C)CC1` [Terpinolene], the “Visual Observation” value is reported as “Clear, colorless” in [1] (Target Concentration 0.06% w/w); “Hazy, not fully” in [1] (Target Concentration 0.24% w/w); “Clear, colorless” in [1] (Target Concentration […] w/w).
As to `C=C1CC/C=C(\C)CC[C@@H]2[C@@H]1CC2(C)C` [β-caryophyllene], the “Visual Observation” value in series [1] (Target Concentration 0.06% w/w) was “Clear, colorless”; in series [1] (Target Concentration 0.24% w/w), “Hazy, not fully”; in series [1] (Target Concentration […] w/w), “Clear, colorless”.
One may read the pKa as the negative logarithm of the acid dissociation constant. With `O=C1NS(=O)(=O)c2ccccc21` [saccharin], the pKa in series [4] is roughly 1.9.
Take `C=CC(=C)CCC=C(C)C` [β-myrcene]: the “solubility at the lowest percentage tested” value in series [1] (0.06% w/w) was “not soluble”. For the same compound, the “Visual Observation” value is given as “Hazy, not fully” in [1] (Target Concentration 0.06% w/w); “Hazy, not fully” in [1] (Target Concentration 0.24% w/w); “Hazy, not fully” in [1] (Target Concentration […] w/w).
Regarding `CCCCCc1cc(O)c2c(c1)OC(C)(C)C1CC=C(C)CC21` (stereo not shown) [Δ8-THC, delta-8-tetrahydrocannabinol], the cough reaction entry in the series on patients was “causing patients to cough”.
